Data from patent US20070197452A1, “Treatment of amyloid-related diseases” (priority 2006, published 2007).

Assays:
[1] = tested on: transgenic TauP301L mouse model of frontotemporal dementia; assay: Astrogliosis in transgenic TauP301L mice; type: in vivo; conditions: transgenic Tau (P301L) mice
Description: Gliosis Quantitation. Five randomly selected, evenly spaced, sagittal sections were collected from paraformaldehyde-fixed and frozen hemispheres of treated and control mice. Sections were immunolabelled for astrocytes with anti-rat GFAβ IgG2a (Dako; diluted 1:50) and for microglia with anti-rat CD68 IgG2b (Dako; 1:50). Digital images were captured using a Coolsnap digital camera (Photometrics, Tuscon, Ariz.) mounted to a Zeiss, Axioscope 2 Plus microscope. Images were analysed using Openlab 3.08 imaging software (Improvision, Lexington Mass.). Quantification of gliosis. Five randomly selected, evenly spaced sagittal sections from paraformaldehyde-fixed and frozen hemispheres of treated and control mice were collected. Sections were immunolabeled for astrocytes with an antibody against rat GFAβ IgG2a (Dako; diluted 1:50) and for microglia with an antibody to rat CD68 IgG2b (Dako; 1:50). Digital images were captured using a Coolsnap digital camera (Photometrics) mounted to a Zeiss, Axioscope 2 Plus microscope. Images were analyzed using Openlab 3.08 imaging software (Improvision).

Aβ oligomeric species = target: T1, Aβ oligomeric species (Homo sapiens, UniProt P05067); assay: Western blot of soluble brain fractions for Aβ species; type: in vivo, mouse
T1 construct: from tissue; host or cells: soluble fraction of hemi-brain homogenates of TgCRND8 transgenic mice
Description: Soluble Aβ oligomer analyses. Levels of soluble Aβ oligomers were measured by a dot-blot assay with oligomer-specific antibodies on all brain homogenates from all experimental groups. Soluble oligomers were also examined by western blot analyses.
Samples were centrifuged (100,000 g, 20 min, 4° C.), supernatant collected and frozen at −80° C. until use. Proteins (20 μg) were separated by SDS-PAGE on a 10-20% Tris-Tricine gel, transferred to a nitrocellulose membrane, blocked for 1 h at room temp with 8% non-fat milk and incubated overnight with anti-Aβ (6E10; 1:2,500). Membranes were rinsed with TBST, exposed to anti-mouse (1:5,000) for 1 h at room temperature, washed with TBST (6×10 min) and developed using enhanced chemiluminescence. Blots were stripped and re-probed with either anti-APP (22C11; 1:1,000) or anti-GAPDH (1:10,000) to confirm equal protein loading.

[2] = tested on: transgenic TauP301L mouse model; assay: Synaptophysin quantification in TgTauP301L mice; type: in vivo; conditions: TgTauP301L mice after treatment
Description: Synaptophysin immunohistochemical staining was performed on 3 evenly spaced saggital sections of paraformaldehyde-fixed treated and control mice. Sections were immunolabelled for synaptophysin with anti-synaptophysin IgG (1:40; Roche, Laval, PQ). Digital images were captured and analyzed as described above. Within each section, three randomly chosen 100 μm2 areas of the CA1 region of the hippocampus were counted for synaptophysin reactive cell bodies and boutons. The results are expressed as the mean of the number of reactive bodies and boutons per 100 μm2 [33, 34].
Synaptophysin quantification. Immunohistochemical staining was carried out for synaptophysin on three evenly spaced sagittal sections of paraformaldehyde-fixed treated and control mice. Sections were immunolabeled for synaptophysin with synaptophysin-specific IgG (1:40; Roche). Digital images were captured and analyzed as described above. Within each section, three randomly chosen 100 μm2 areas of the CA1 region of the hippocampus were counted for synaptophysin-reactive cell bodies and boutons. The results are expressed as the mean of the number of reactive bodies and boutons per 100 μm2 [33, 34].

APP = assay: Analysis of APP in brain (western blot); type: in vivo, mouse; conditions: treated TgCRND8 mice
Description: Analysis of APP in brain. Mouse hemi-brain samples were homogenized and spun at 109,000×g, in 20 mM Tris pH7.4,0.25M sucrose, 1 mM EDTA and 1 mM EGTA, and a protease inhibitor cocktail, mixed with 0.4% DEA (diethylamine)/100 mM NaCl. The supernatants were analysed for APPs levels by Western blotting using mAb 22C11, while the pellets were analysed for APP holoprotein with mAb C1/6.1 as previously described.
(§1) Analysis of APP processing. Mouse hemi-brain samples were homogenized and spun at 109,000 g, in 20 mM Tris pH 7.4, 0.25 M sucrose, 1 mM EDTA and 1 mM EGTA, and a protease inhibitor cocktail, mixed with a mixture of 0.4% DEA (diethylamine) and 100 mMNaCl. The supernatants were analyzed for APP levels by western blotting using the monoclonal antibody 22C11, and the pellets were analyzed for APP holoprotein with the monoclonal antibody C1/6.1 as previously described. […] The target protein was probed with polyclonal APP C-terminal fragment-specific antibody (Sigma) by western blotting.

γ-secretase = assay: In vitro γ-secretase assay in HEK293 cells transfected with human APPswe; type: cell-based
Description: FIG. 9. In vitro γ-secretase assays in HEK293 cells transfected with human APPswe. After swAPP stable HEK293 cells were untreated or treated with AZD-103 or 10 nM compound E, cell membranes were used for APP-FL and —CTF detection and for e-stubs generation in vitro assays at 37° C. for 1 hr. Lanes 1&[…] AZD-103 treatment; lanes 3&4 […] AZD-103 treatment; lanes 5&6 compound E treated and lanes 7&8 untreated HEK293 APPswe cells.
as §1

[3] = wild-type mice
Description: Mice. […] A cohort of animals (n=10 mice per treatment arm) entered the study at five months of age, and outcomes were then analyzed after one month of treatment. The body weight, coat characteristics and in cage behaviour were monitored. Mannitol was used as a negative control for potential alterations in caloric intake. All experiments were performed according to the Canadian Council on Animal Care guidelines.
Mice. […] Mannitol was used as a negative control for potential alterations in caloric intake.

TgCRND8 mice = assay: Morris water maze spatial reference memory test; type: in vivo, mouse; conditions: separate cohort; 28 days of treatment from 5 months of age; data not shown
[4] = 4-month-old TgCRND8 mice, treated (n=4) vs untreated (n=4)
[5] = 4-month-old treated vs untreated TgCRND8 mice, densitometry

T1 sequence (P05067 672-713 limits assumed): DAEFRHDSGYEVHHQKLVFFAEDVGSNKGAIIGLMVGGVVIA

OC1C(O)C(O)C(O)C(O)C1O (stereo not shown) [scyllo-cyclohexanehexol, 1,3,5/2,4,6-(scyllo-) cyclohexanehexol]
astrogliosis [1]: did not prevent the astrogliosis
astrogliosis ([1]; listed as Scyllo-cyclohexanehexol): no effect
high-molecular-weight Aβ species (Aβ oligomeric species; [4]): decrease in high-molecular-weight Aβ species
smaller Aβ oligomers (Aβ oligomeric species; [4]): increase in smaller oligomers
increase in low-molecular-weight trimeric Aβ species (Aβ oligomeric species; [5]): 282±5%
reduction of high-molecular-weight Aβ oligomeric species (Aβ oligomeric species; [5]): 25±4.5%
synaptophysin reactivity / synaptic loss [2]: unchanged
synaptophysin reactivity / synaptic loss ([2]; listed as AZD-103): unchanged
synaptophysin reactivity / synaptic loss ([2]; listed as scyllocyclohexanehexol): no effect on synaptic loss
levels of APP holoprotein, APP glycosylation, APPs-α, APPs-β in brain homogenates (APP): no effect
γ-secretase enzyme activity (γ-secretase): no effect
survival, weight, fur condition, cage behavior [3]: no effect on survival, weight, fur condition or cage behavior
probe trial, % time in target quadrant, compared with non-Tg littermates (TgCRND8 mice): not statistically different from non-Tg littermates
